Experimental data taken from US6858638B2, “Substituted indazoles, compositions containing them, method of production and use” (Aventis Pharma S.A., priority 2002, dated 2005).

What was measured:
Type in all cases: biochemical
Aurora2 kinase = target: T1, Aurora2 kinase (Homo sapiens, UniProt O14965); assay: Aurora2 kinase radioactivity scintillation assay using nickel chelate (NuMA substrate); conditions: 10 μM; read-out: Aurora2 % inhib at 10 μM
T1 construct: A complete recombinant Aurora2 enzyme; His tag (N); made in house; host or cells: E. coli
T1 sequence (O14965 1-403): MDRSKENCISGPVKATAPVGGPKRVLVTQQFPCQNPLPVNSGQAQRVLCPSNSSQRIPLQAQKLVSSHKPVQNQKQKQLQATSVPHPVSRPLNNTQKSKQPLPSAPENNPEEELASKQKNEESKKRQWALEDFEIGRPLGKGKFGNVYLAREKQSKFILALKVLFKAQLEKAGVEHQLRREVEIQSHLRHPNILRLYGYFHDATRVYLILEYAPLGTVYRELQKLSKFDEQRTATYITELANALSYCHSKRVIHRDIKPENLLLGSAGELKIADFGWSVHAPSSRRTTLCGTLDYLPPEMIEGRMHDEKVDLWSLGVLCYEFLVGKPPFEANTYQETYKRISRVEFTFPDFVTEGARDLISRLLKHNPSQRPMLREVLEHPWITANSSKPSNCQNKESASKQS
In short: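 Read-out is 33P incorporation into His-NuMA (Q1687-H2101, 0.5 μM) captured on nickel chelate, after 30 min at 37 °C with 0.02 μM His-Aurora2 and 1 μM ATP. Expressed as percentage inhibition of uncompounded control activity, background subtracted.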

human FAK = target: T2, human FAK (Homo sapiens, UniProt Q05397); assay: FAK autophosphorylation inhibition, time resolved fluorescence (HTRF) assay; conditions: 10 μM (values without asterisk); read-out: FAK % inhib at 10 μM
T2 construct: The complete cDNA of human FAK; made in house; host or cells: baculovirus expression system (vector pFastBac HTc)
T2 sequence (Q05397 whole entry): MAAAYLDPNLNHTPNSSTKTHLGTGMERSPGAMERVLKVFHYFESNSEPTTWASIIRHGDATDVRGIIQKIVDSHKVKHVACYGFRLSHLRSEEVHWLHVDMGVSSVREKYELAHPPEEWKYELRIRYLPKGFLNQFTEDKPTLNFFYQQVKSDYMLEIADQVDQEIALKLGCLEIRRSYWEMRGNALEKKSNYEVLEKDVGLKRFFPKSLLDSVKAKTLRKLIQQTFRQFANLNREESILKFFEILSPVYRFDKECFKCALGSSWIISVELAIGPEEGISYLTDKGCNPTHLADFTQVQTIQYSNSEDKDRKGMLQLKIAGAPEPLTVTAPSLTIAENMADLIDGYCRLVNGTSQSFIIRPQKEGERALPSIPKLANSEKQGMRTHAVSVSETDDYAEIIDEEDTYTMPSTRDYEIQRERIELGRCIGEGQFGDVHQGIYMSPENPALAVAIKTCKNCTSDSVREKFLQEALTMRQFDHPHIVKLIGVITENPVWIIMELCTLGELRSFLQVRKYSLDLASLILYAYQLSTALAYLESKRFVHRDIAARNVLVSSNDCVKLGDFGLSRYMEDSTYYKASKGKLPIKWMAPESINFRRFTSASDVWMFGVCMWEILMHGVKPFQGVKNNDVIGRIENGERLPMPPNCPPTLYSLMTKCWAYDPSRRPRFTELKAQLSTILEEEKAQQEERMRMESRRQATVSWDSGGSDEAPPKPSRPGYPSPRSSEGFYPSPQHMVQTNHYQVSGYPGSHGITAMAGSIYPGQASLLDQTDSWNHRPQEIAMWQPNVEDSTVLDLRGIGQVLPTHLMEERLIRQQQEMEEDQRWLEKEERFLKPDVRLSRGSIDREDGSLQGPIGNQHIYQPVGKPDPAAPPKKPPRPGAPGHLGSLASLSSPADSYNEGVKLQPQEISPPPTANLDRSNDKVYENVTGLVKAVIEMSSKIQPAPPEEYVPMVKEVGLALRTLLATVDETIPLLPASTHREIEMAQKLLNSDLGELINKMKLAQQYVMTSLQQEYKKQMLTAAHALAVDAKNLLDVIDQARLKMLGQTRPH
In short: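 Autophosphorylation was detected by europium-cryptate anti-pTyr and XL665 anti-His energy transfer, percent inhibition from the 665/620 ratio relative to no-compound wells. Enzyme: His-FAK full length, 6.6 µg/ml, incubated 1 h at 37 °C, pH 7.2, 15 µM ATP.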

[1] = target: T3, human IGF1R cytoplasmic domain (Homo sapiens, UniProt P08069); assay: IGF1R autophosphorylation inhibition, time resolved fluorescence (HTRF) assay; conditions: 10 μM; read-out: IGF1R % inhib at 10 μM
T3 construct: The human IGF1R cytoplasmic domain was cloned; made in house; host or cells: SF21 insect cells (baculovirus)
T3 sequence (P08069 960-1367 limits assumed): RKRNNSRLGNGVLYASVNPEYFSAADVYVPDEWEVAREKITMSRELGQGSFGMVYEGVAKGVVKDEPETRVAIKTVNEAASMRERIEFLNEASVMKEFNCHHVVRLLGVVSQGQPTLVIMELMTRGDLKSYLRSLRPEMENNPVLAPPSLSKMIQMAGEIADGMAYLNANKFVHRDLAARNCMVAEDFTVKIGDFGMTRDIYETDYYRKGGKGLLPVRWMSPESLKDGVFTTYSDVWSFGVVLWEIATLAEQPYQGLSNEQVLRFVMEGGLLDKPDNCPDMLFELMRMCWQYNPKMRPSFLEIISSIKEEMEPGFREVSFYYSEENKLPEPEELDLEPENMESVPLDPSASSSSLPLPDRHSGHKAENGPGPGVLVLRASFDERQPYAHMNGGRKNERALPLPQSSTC
In short: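 GST-tagged human IGF1R cytoplasmic domain from SF21 cells incubated with compound in 50 mM Hepes pH 7.5, 5 mM MnCl2, 50 mM NaCl, […] ATP. Autophosphorylation detected by HTRF (Eu-K anti-phosphotyrosine, XL665 anti-GST) after EDTA/KF stop; percentage inhibition versus no-compound control.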

human KDR enzyme = target: T4, human KDR enzyme (Homo sapiens, UniProt P35968); assay: KDR substrate (PLCγ) phosphorylation, scintillation assay; conditions: 10 μM; read-out: KDR % inhib at 10 μM
T4 construct: The cytoplasmic domain of the human KDR enzyme; GST; made in house; host or cells: SF21 insect cells (baculovirus)
T4 sequence (P35968 786-1356 limits assumed): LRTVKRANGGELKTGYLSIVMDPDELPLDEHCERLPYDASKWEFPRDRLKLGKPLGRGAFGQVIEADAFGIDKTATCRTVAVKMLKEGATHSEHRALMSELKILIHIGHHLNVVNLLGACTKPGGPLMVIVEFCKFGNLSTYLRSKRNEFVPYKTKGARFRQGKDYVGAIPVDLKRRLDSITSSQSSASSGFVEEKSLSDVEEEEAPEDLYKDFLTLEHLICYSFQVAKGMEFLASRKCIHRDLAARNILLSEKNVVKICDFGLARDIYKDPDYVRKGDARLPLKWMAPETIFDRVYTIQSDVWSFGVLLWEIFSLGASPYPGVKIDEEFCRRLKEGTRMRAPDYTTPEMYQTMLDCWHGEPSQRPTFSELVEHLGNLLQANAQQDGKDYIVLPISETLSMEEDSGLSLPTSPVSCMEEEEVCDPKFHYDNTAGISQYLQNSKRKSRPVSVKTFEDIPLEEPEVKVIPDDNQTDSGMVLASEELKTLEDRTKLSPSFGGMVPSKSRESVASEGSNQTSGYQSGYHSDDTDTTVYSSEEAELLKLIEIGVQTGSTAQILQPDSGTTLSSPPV
In short: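 Values are percent inhibition relative to the compound-free control, read by scintillation counting of 33P incorporation after EDTA stop. Baculovirus/SF21-expressed GST-KDR cytoplasmic domain (100 ng) acted for 1 h at 37 °C in pH 7.2 MOPS kinase buffer. The substrate was GST-PLCγ SH2-SH3 (2 μg), added with γ33P-ATP and 2 μM unlabeled ATP.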

Structure (SMILES)	inhibition at 10 µM (Aurora2 kinase) [%]	inhibition at 10 µM (human FAK) [%]	inhibition at 10 µM [1] [%]	inhibition at 10 µM (human KDR enzyme) [%]
CS(=O)(=O)c1ccccc1S(=O)(=O)Nc1ccc2[nH]nc(-c3ccc(C(F)(F)F)cc3)c2c1 [Example 176, N-[3-(4-Trifluoromethylphenyl)-1H-indazol-5-yl]-2-methanesulfonyl-benzenesulfonamide]	88	66	83	70
CS(=O)(=O)c1ccccc1S(=O)(=O)Nc1ccc2[nH]nc(-c3cccc(Cl)c3)c2c1 [Example 177, N-[3-(3-Chlorophenyl)-1H-indazol-5-yl]-2-methanesulfonyl-benzenesulfonamide]	95	97	80	71
COc1cccc(-c2n[nH]c3ccc(NS(=O)(=O)c4ccccc4S(C)(=O)=O)cc23)c1 [Example 178, 2-Methanesulfonyl-N-[3-(3-methoxyphenyl)-1H-indazol-5-yl]benzenesulfonamide]	90	95	67	44
Cc1cc(C)cc(-c2n[nH]c3ccc(NS(=O)(=O)c4ccccc4S(C)(=O)=O)cc23)c1 [Example 179, 2-Methanesulfonyl-N-[3-(3,5-dimethylphenyl)-1H-indazol-5-yl]benzenesulfonamide]	93	96	72	49
CS(=O)(=O)c1ccccc1S(=O)(=O)Nc1ccc2[nH]nc(-c3cc4ccccc4o3)c2c1 [Example 180, N-(3-Benzofuran-2-yl-1H-indazol-5-yl)-2-methanesulfonyl-benzenesulfonamide]	99	95	93	29
CS(=O)(=O)c1ccccc1S(=O)(=O)Nc1ccc2[nH]nc(-c3ccc(Cl)s3)c2c1 [Example 181, N-[3-(5-Chlorothiophen-2-yl)-1H-indazol-5-yl]-2-methanesulfonyl-benzenesulfonamide]	94	83	55	49
CS(=O)(=O)c1ccccc1S(=O)(=O)Nc1ccc2[nH]nc(-c3cccc(F)c3)c2c1 [Example 182, N-[3-(3-Fluorophenyl)-1H-indazol-5-yl]-2-methanesulfonyl-benzenesulfonamide]	94	96	69	68
COc1ccccc1-c1n[nH]c2ccc(NS(=O)(=O)c3ccccc3S(C)(=O)=O)cc12 [Example 183, 2-Methanesulfonyl-N-[3-(2-methoxyphenyl)-1H-indazol-5-yl]benzenesulfonamide]	90	82	50	37
CS(=O)(=O)c1ccccc1S(=O)(=O)Nc1ccc2[nH]nc(-c3cccc(Br)c3)c2c1 [Example 184, N-[3-(3-Bromophenyl)-1H-indazol-5-yl]-2-methanesulfonyl-benzenesulfonamide]	93	96	73	61
C=Cc1ccc(-c2n[nH]c3ccc(NS(=O)(=O)c4ccccc4S(C)(=O)=O)cc23)cc1 [Example 185, 2-Methanesulfonyl-N-[3-(4-vinylphenyl)-1H-indazol-5-yl]-benzenesulfonamide]	94	92	77	58
CCOc1cccc(-c2n[nH]c3ccc(NS(=O)(=O)c4ccccc4S(C)(=O)=O)cc23)c1 [Example 186, N-[3-(3-Ethoxyphenyl)-1H-indazol-5-yl]-2-methanesulfonyl-benzenesulfonamide]	90	94	60	35
CS(=O)(=O)c1ccccc1S(=O)(=O)Nc1ccc2[nH]nc(-c3ccccc3Cl)c2c1 [Example 187, N-[3-(2-Chlorophenyl)-1H-indazol-5-yl]-2-methanesulfonyl-benzenesulfonamide]	67	46	52	49
CS(=O)(=O)c1ccccc1S(=O)(=O)Nc1ccc2[nH]nc(-c3ccccc3F)c2c1 [Example 188, N-[3-(2-Fluorophenyl)-1H-indazol-5-yl]-2-methanesulfonyl-benzenesulfonamide]	74	91	61	64
CCOc1ccccc1-c1n[nH]c2ccc(NS(=O)(=O)c3ccccc3S(C)(=O)=O)cc12 [Example 189, N-[3-(2-Ethoxyphenyl)-1H-indazol-5-yl]-2-methanesulfonyl-benzenesulfonamide]	62	70	31	20
CCOc1ccc(-c2n[nH]c3ccc(NS(=O)(=O)c4ccccc4S(C)(=O)=O)cc23)cc1 [Example 190, N-[3-(4-Ethoxyphenyl)-1H-indazol-5-yl]-2-methanesulfonyl-benzenesulfonamide]	95	96	74	50
CS(=O)(=O)c1ccccc1S(=O)(=O)Nc1ccc2[nH]nc(-c3ccc(CO)cc3)c2c1 [Example 191, N-[3-(4-Hydroxymethylphenyl)-1H-indazol-5-yl]-2-methanesulfonyl-benzenesulfonamide]	88	96	73	45
CS(=O)(=O)c1ccccc1S(=O)(=O)Nc1ccc2[nH]nc(-c3ccc(F)c(F)c3)c2c1 [Example 192, N-[3-(3,4-Difluorophenyl)-1H-indazol-5-yl]-2-methanesulfonyl-benzenesulfonamide]	89	90	72	47
CCc1ccc(-c2n[nH]c3ccc(NS(=O)(=O)c4ccccc4S(C)(=O)=O)cc23)cc1 [Example 193, N-[3-(4-Ethylphenyl)-1H-indazol-5-yl]-2-methanesulfonyl-benzenesulfonamide]	88	76	65	56
CS(=O)(=O)c1ccccc1S(=O)(=O)Nc1ccc2[nH]nc(-c3ccc(OCc4ccccc4)c(F)c3)c2c1 [Example 194, N-[3-(4-Benzyloxy-3-fluoro-phenyl)-1H-indazol-5-yl]-2-methanesulfonyl-benzenesulfonamide]	58	44	41	39
Cc1ccc(-c2n[nH]c3ccc(NS(=O)(=O)c4ccccc4S(C)(=O)=O)cc23)cc1C [Example 195, 2-Methanesulfonyl-N-[3-(3,4-dimethylphenyl)-1H-indazol-5-yl]benzenesulfonamide]	91	91	75	47
CS(=O)(=O)c1ccccc1S(=O)(=O)Nc1ccc2[nH]nc(-c3ccc4c(c3)OCO4)c2c1 [Example 196, N-[3-(Benzo[1,3]dioxol-5-yl)-1H-indazol-5-yl]-2-methanesulfonyl-benzenesulfonamide]	94	94	76	73
CC(C)(C)c1ccc(-c2n[nH]c3ccc(NS(=O)(=O)c4ccccc4S(C)(=O)=O)cc23)cc1 [Example 197, N-[3-(4-tert-Butylphenyl)-1H-indazol-5-yl]-2-methanesulfonyl-benzenesulfonamide]	73	43	0	41
